From PMC11204291, “Structural characterization of macro domain–containing Thoeris antiphage defense systems” (Science Advances, 2024)

How the values were obtained:
[1] = target: T1, EcThsA (ThsA TM-macro effector), macro domain (Escherichia coli, UniProt A0A0H2V895, N114A); experiment: STD NMR; assay type: binding
T1 construct: gene c2400; EcThsA^Macro; residues 62 to 278

[2] = target: T2, EcThsA (ThsA TM-macro effector), macro domain (Escherichia coli, UniProt A0A0H2V895); experiment: crystal structure of soaked complex ([…] Å); STD NMR; assay type: binding
T2 construct: gene c2400; EcThsA^Macro; residues 62 to 278
T2 sequence (A0A0H2V895 62-278): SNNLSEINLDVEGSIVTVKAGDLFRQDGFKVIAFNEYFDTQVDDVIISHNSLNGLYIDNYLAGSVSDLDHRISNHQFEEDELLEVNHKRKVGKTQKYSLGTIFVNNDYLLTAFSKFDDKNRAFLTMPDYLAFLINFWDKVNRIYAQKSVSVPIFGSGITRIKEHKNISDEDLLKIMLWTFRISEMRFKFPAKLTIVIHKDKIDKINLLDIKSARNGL

[3] = target: T3, EcThsA (ThsA TM-macro effector), macro domain (Escherichia coli, UniProt A0A0H2V895, F250A/I219A/K249E/Q207E/R182E/R221E); experiment: ITC (~[…]); STD NMR; assay type: binding
T3 construct: gene c2400; EcThsA^Macro; residues 62 to 278
T3 sequence (A0A0H2V895 62-278 R182E/Q207E/I219A/R221E/K249E/F250A): T2 sequence (A0A0H2V895 62-278)

[4] = target: T4, PcThsA (ThsA TM-macro effector), macro domain (Pseudomonas corrugata, UniProt A0A7Y5Z1U6); experiment: crystal structure ([…] Å) with copurified ligand; LC-MS; assay type: binding
T4 construct: gene HNO91_03675; PcThsA^Macro; residues 63 to 278

[5] = target: T3, EcThsA (ThsA TM-macro effector), macro domain; experiment: ITC; assay type: binding
[6] = target: T2, EcThsA (ThsA TM-macro effector), macro domain; experiment: ligand-induced self-aggregation of purified protein (turbidity, SDS-PAGE); assay type: binding
EcThsB1, TIR domain [7] = target: T5, EcThsB1, TIR domain (Escherichia coli, UniProt A0A0H2V8B5); experiment: real-time 1H NMR NADase assay; assay type: biochemical
T5 construct: gene TcpC; EcThsB1^TIR; residues 165 to 307

EcThsB1, TIR domain [8] = target: T5, EcThsB1, TIR domain; experiment: 1H NMR base-exchange assay; assay type: biochemical
[9] = target: macro domain of EcThsA (EcThsA^Macro; residues 62 to 278), wild type (E. coli CFT073); experiment: aggregation assay (SDS-PAGE of soluble and insoluble fractions); protein 47 μM incubated with 1 mM ADPR (or 1 mM IAD) at 4°C for 1 hour; higher-order self-association of the dimers
[10] = target: macro domain of EcThsA (EcThsA^Macro; residues 62 to 278), wild type (E. coli CFT073); experiment: SEC-MALS; Superdex 200 5/150 Increase equilibrated in gel filtration buffer, 30 μl of EcThsA^Macro at 0.25 ml/min; no ligand; monomer to dimer

T5 sequence (A0A0H2V8B5 165-307 limits assumed): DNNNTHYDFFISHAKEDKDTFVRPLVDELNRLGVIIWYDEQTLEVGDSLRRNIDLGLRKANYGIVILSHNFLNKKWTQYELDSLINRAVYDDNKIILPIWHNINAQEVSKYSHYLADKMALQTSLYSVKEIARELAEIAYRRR
T4 sequence (A0A7Y5Z1U6 entry or part of it): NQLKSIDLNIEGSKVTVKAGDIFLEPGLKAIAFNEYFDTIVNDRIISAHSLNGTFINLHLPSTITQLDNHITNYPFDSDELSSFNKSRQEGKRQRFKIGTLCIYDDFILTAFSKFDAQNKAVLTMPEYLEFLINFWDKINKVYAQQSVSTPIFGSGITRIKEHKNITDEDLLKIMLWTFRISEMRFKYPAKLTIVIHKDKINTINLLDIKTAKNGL

Nc1ncnc2c1ncn2[C@@H]1O[C@H](COP(=O)(O)OP(=O)(O)OC[C@H]2O[C@H](O)[C@H](O)[C@@H]2O)[C@@H](O)[C@H]1O [ADPR]
STD NMR [1]: The N114A mutant could still bind ADPR (Fig. 1I), but the STD NMR signal intensities were different
crystal structure of soaked complex (2.1 Å); STD NMR [2]: we observed continuous electron density for a molecule corresponding to ADPR in a highly conserved cleft
Kd [3]: 4600 ± 500 nM

Nc1ncnc2c1ncn2[C@@H]1O[C@H](COP(=O)(O)OP(=O)(O)OC[C@H]2O[C@@H](n3ccnc3)[C@H](O)[C@@H]2O)[C@@H](O)[C@H]1O [IAD]
crystal structure (1.6 Å) with copurified ligand; LC-MS [4]: revealed that the PcThsA^Macro bound nucleotide has a mass corresponding to IAD
Kd [5]: 167 ± 91 nM
ligand-induced self-aggregation of purified protein (turbidity, SDS-PAGE) [6]: demonstrating that only ADPR and IAD can trigger self-aggregation of EcThsA^Macro

NC(=O)c1ccc[n+]([C@@H]2O[C@H](COP(=O)([O-])OP(=O)(O)OC[C@H]3O[C@@H](n4cnc5c(N)ncnc54)[C@H](O)[C@@H]3O)[C@@H](O)[C@H]2O)c1 [NAD^+]
real-time 1H NMR NADase assay (EcThsB1, TIR domain [7]): could use NAD^+ as a substrate to produce nicotinamide and ADP ribose (ADPR)

NCCc1c[nH]cn1 [histamine]
1H NMR base-exchange assay (EcThsB1, TIR domain [8]): EcThsB1^TIR could use the histidine catabolite histamine as a substrate in base-exchange reactions, but not histidine

c1c[nH]cn1 [imidazole]
1H NMR base-exchange assay (EcThsB1, TIR domain [8]): only imidazole, histamine, and thiazole were observed to undergo base-exchange reactions with NAD^+ in the presence of EcThsB1^TIR

macro domain of EcThsA (EcThsA^Macro; residues 62 to 278), wild type (domain or fragment)
percent of the protein in the insoluble fraction after incubation with ADPR or IAD [9]: > 50%
stoichiometry N [10]: 2
